pEC50: −log10 of the molar value.

One data set relates to dengue virus type 2. The experiment in a line: Antiviral activity against eGPF-labeled DENV2 16681 infected in African green monkey Vero cells measured after 3 days by fluorescence microscopic analysis. The format is functional, cell-based.
Data set [1] in a line: Selectivity index, ratio of CC50 for African green monkey Vero cells infected with eGPF-labeled DENV2 16681 to EC50 for DENV2 16681 expressing eGPF infected in African green monkey Vero cells.
The nature of data set [2]: Cytotoxicity against African green monkey Vero cells infected with eGPF-labeled DENV2 16681 assessed as reduction in cell viability measured after 3 days by ATPlite assay. The format is toxicity, cell-based. To be noted: chlorocebus sabaeus; for CC50: vero, 72 h; for CC50 at 72 h: Vero cells infected with eGFP-labeled DENV2 16681. Background: ATP-based viability assays read luminescence as a measure of living cells.

The term pEC50 denotes the EC50 on a negative log10 scale, so that one unit is a factor of ten. One may read the CC50 as the concentration at which the toxic effect on the cells reaches its halfway point. In the data set on dengue virus type 2, `COc1cc(NC(C(=O)c2c[nH]c3cc(OC)c(C)cc23)c2ccc(Cl)cc2OC)cc(S(C)(=O)=O)c1` (single isomer, unassigned; enantiomer 2) showed a pEC50 of 7.44. Moreover, the “Ratio CC50/EC50” value in data set [1] is on record as 341. Moreover, the CC50 in data set [2] was 12000 nM.

In the data set with dengue virus type 2, `COc1cc(NC(C(=O)c2c[nH]c3cc(F)ccc23)c2ccc(Cl)cc2OC)cc(S(C)(=O)=O)c1` (single isomer, unassigned; enantiomer 1) had a pEC50 of 9.59. For the same compound, the “Ratio CC50/EC50” value in data set [1] is 19700. Besides, in data set [2], the CC50 is 4300 nM.

In the data set with dengue virus type 2, `COc1cc(NC(C(=O)c2c[nH]c3ccc(OC(F)(F)F)cc23)c2ccc(Cl)cc2OC)cc(S(C)(=O)=O)c1` (single isomer, unassigned; enantiomer 2) gave a pEC50 of 8.42. For the same compound, in data set [1], the “Ratio CC50/EC50” value is given as 1480. Further, the CC50 in data set [2] was found to be 6200 nM.

Compound `COc1cc(NC(C(=O)c2c[nH]c3c(C)cc(OC(F)(F)F)cc23)c2ccc(Cl)cc2OC)cc(S(C)(=O)=O)c1` (single isomer, unassigned; enantiomer 2) showed a negative logarithm of the EC50 (pEC50) in the data set on dengue virus type 2 of 8.39. The “Ratio CC50/EC50” value in data set [1] was 22200. Moreover, in data set [2], the 50% cytotoxic concentration (CC50) was determined as 9200 nM.

For the compound `COc1cc(NC(C(=O)c2c[nH]c3cc(OC)c(C)cc23)c2ccc(Cl)cc2OC)cc(S(C)(=O)=O)c1` (single isomer, unassigned), the negative-log EC50 (pEC50) with dengue virus type 2 was 9.57. In data set [1], the “Ratio CC50/EC50” value is recorded as 16900. For the same compound, the CC50 in data set [2] stood at 4200 nM.

On to `COc1cc(NC(C(=O)c2c[nH]c3ccc(OC(F)(F)F)cc23)c2ccc(Cl)cc2OC)cc(S(C)(=O)=O)c1` (single isomer, unassigned; enantiomer 1), for which the negative-log EC50 (pEC50) with dengue virus type 2 is 10.17. Also, in data set [1], the “Ratio CC50/EC50” value is recorded as over 37500. The CC50 in data set [2] was 2900 nM.

With `COc1cc(NC(C(=O)c2c[nH]c3cc(F)ccc23)c2ccc(Cl)cc2OC)cc(S(C)(=O)=O)c1` (single isomer, unassigned; enantiomer 2), the negative-log EC50 (pEC50) in the data set on dengue virus type 2 was 7.92. For the same compound, in data set [1], the “Ratio CC50/EC50” value was 530. In addition, in data set [2], the cytotoxic concentration (CC50) was determined as 6500 nM.

Take `COc1cc(NC(C(=O)c2c[nH]c3c(C)c(F)ccc23)c2ccc(Cl)cc2OC)cc(S(C)(=O)=O)c1` (single isomer, unassigned; enantiomer 1): in the data set with dengue virus type 2, the negative logarithm of the EC50 (pEC50) was 9.59. Also, in data set [1], the “Ratio CC50/EC50” value turned out to be 22000. The cytotoxic concentration (CC50) at 72 h in data set [2] stood at 4800 nM.

In turn, `COc1cc(NC(C(=O)c2c[nH]c3cc(F)c(C)cc23)c2ccc(Cl)cc2OC)cc(S(C)(=O)=O)c1` (single isomer, unassigned; enantiomer 2) gave a pEC50 in the data set on dengue virus type 2 of 9.70. In addition, the “Ratio CC50/EC50” value in data set [1] was 18500. Further, the half-maximal cytotoxic concentration (CC50) in data set [2] stood at 3200 nM.

For `COc1cc(NC(C(=O)c2c[nH]c3c(C)cc(OC(F)(F)F)cc23)c2ccc(Cl)cc2OC)cc(S(C)(=O)=O)c1` (stereo in doubt; 11A), the negative-log EC50 (pEC50) in the data set with dengue virus type 2 is 10.07. Further, the “Ratio CC50/EC50” value in data set [1] is 30100. The CC50 in data set [2] came out at 2600 nM.

With `COc1cc(NC(C(=O)c2c[nH]c3cc(F)ccc23)c2ccc(Cl)cc2OC)cc(S(C)(=O)=O)c1` (racemic), in the data set on dengue virus type 2, the pEC50 is 9.28. Moreover, the “Ratio CC50/EC50” value in data set [1] worked out at 11500. Also, the CC50 at 72 h in data set [2] stood at 5500 nM.

`COc1cc(NC(C(=O)c2c[nH]c3c(C)c(F)ccc23)c2ccc(Cl)cc2OC)cc(S(C)(=O)=O)c1` (single isomer, unassigned; enantiomer 2) showed a negative-log EC50 (pEC50) in the data set with dengue virus type 2 of 7.59. The “Ratio CC50/EC50” value in data set [1] came to 285. In data set [2], the cytotoxic concentration (CC50) was 7400 nM.

In the data set on dengue virus type 2, `COc1cc(NC(C(=O)c2c[nH]c3cc(F)c(C)cc23)c2ccc(Cl)cc2OC)cc(S(C)(=O)=O)c1` (single isomer, unassigned; enantiomer 1) gave a pEC50 of 7.89. In addition, the “Ratio CC50/EC50” value in data set [1] was 538. Also, in data set [2], the CC50 stood at 6800 nM.

These data come from ChEMBL document CHEMBL3870354, “Viral Replication Inhibitors May Treat the Dengue Virus Infections” (ACS Med Chem Lett, 2017).
